In patent US7105510B2, “Non-nucleoside reverse transcriptase inhibitors” (Boehringer Ingelheim (Canada) Ltd., priority 2002, dated 2006):

How the values were obtained:
HIV-1 RT WT = molecular target: T1, HIV-1 RT WT (Human immunodeficiency virus type 1 group M subtype B, UniProt P03366); assay: Reverse Transcriptase (RT) assay, wild type; type: biochemical
T1 construct: mutations that occur in the reverse transcriptase segment of the pol gene
Text: (§1) Based upon testing of these compounds, as described below, it is known that they inhibit the RNA-dependent DNA polymerase activity of HIV-1 RT. Utilizing the Reverse Transcriptase (RT) Assay described below, compounds can be tested for their ability to inhibit the RNA-dependent DNA polymerase activity of HIV-1 RT. Certain specific compounds described in the Examples which appear below, were so tested. The results of this testing appear in Table 2 as IC50 (nM) and EC50 (nM).
(§2) Reverse Transcriptase (RT) and Cell-Based Assays
(§3) The assays are as described in WO 01/96338A1, the contents of which are hereby incorporated herein.

HIV-1 RT K103N/Y181C = molecular target: T2, HIV-1 RT K103N/Y181C (Human immunodeficiency virus type 1 group M subtype B, UniProt P03366, K702N/Y780C); assay: Reverse Transcriptase (RT) assay, double mutant K103N/Y181C; type: biochemical
T2 construct: mutations that occur in the reverse transcriptase segment of the pol gene
Text: as §1, §2, §3

HIV-1 WT = assay: Cell-based assay, wild type; details: Human immunodeficiency virus 1
Text: as §2, §3

[1] = system: HIV-1 K103N/Y181C (103/181); assay: Cell-based assay, 103/181 double mutant; details: Human immunodeficiency virus 1, read-out: EC50 103/181
Text: as §2, §3

Work on CCN1c2ncc(CCOc3ccc4c(c3)COC(=O)N4)cc2C(=O)N(C)c2cccnc21 [Entry 133] yielded an IC50 (HIV-1 RT WT) of under 0.05 µM and an IC50 (HIV-1 RT K103N/Y181C) of over 0.1 µM.

CCN1C(=O)c2cc(CCOc3cccc4c3CNC(=O)N4)cnc2N(CC)c2ncccc21 [Entry 117] was tested, and the IC50 (HIV-1 RT WT) was under 0.05 µM and the IC50 (HIV-1 RT K103N/Y181C) was over 0.1 µM.

CCN1c2ncc(CCOc3cccc4c3CCNC4=O)cc2C(=O)N(C)c2cccnc21 [Entry 108] was tested, and the IC50 (HIV-1 RT WT) was under 0.05 µM and the IC50 (HIV-1 RT K103N/Y181C) was 0.05 to 0.1 µM.

CCN1c2ncc(CCOc3cccc4c3CNC4=O)cc2C(=O)Nc2c(C)ccnc21 [Entry 102] showed an EC50 (HIV-1 WT) of under 0.01 µM, an IC50 (HIV-1 RT WT) of under 0.05 µM and an IC50 (HIV-1 RT K103N/Y181C) of over 0.1 µM. The EC50 [1] was under 0.01 µM.

With CCN1c2ncc(CCOc3cccc4c3CNC(=O)N4CC(=O)O)cc2C(=O)N(C)c2cccnc21 [Entry 118] the EC50 (HIV-1 WT) was over 0.05 µM, the IC50 (HIV-1 RT WT) was under 0.05 µM and the IC50 (HIV-1 RT K103N/Y181C) was over 0.1 µM. For the same compound, the EC50 [1] was over 0.05 µM.

CCN1c2ncc(CCOc3cccc4c3CNC(=O)O4)cc2C(=O)N(C)c2cccnc21 [Entry 124, 5,11-Dihydro-8-{2-{(3,4-dihydro-2-oxo-2H-1,3-benzoxazin-5-yl)oxy}ethyl}-11-ethyl-5-methyl-6H-dipyrido[3,2-b:2′,3′-e][1,4]diazepin-6-one] was tested, and the IC50 (HIV-1 RT WT) was under 0.05 µM and the IC50 (HIV-1 RT K103N/Y181C) was under 0.05 µM.

CCN1c2ncc(CCOc3cccc4c3CN(C)C(=O)N4C)cc2C(=O)N(C)c2cccnc21 [Entry 112] gave an EC50 (HIV-1 WT) of under 0.01 µM, an IC50 (HIV-1 RT WT) of under 0.05 µM and an IC50 (HIV-1 RT K103N/Y181C) of over 0.1 µM. It also gave an EC50 [1] of 0.01 to 0.05 µM.

CCN1c2ncc(CCOc3ccc4c(c3)CN(C)C(=O)N4C)cc2C(=O)N(C)c2cccnc21 [Entry 120] showed an IC50 (HIV-1 RT WT) of under 0.05 µM and an IC50 (HIV-1 RT K103N/Y181C) of over 0.1 µM.

Work on CCN1c2ncc(CCOc3ccc4on(C)c(=O)c4c3)cc2C(=O)Nc2c(C)cc(F)nc21 [Entry 130] yielded an IC50 (HIV-1 RT WT) of under 0.05 µM and an IC50 (HIV-1 RT K103N/Y181C) of over 0.1 µM.

In the case of CCN1c2ncc(CCOc3cccc4[nH]c(=O)n(C)c34)cc2C(=O)N(C)c2cccnc21 [Entry 132], the IC50 (HIV-1 RT WT) is reported as 0.05 to 0.1 µM and the IC50 (HIV-1 RT K103N/Y181C) is reported as over 0.1 µM.

In the case of CCN1c2ncc(CCOc3cccc4c3CCNC4=O)cc2C(=O)Nc2c(C)ccnc21 [Entry 109], the IC50 (HIV-1 RT WT) is reported as under 0.05 µM and the IC50 (HIV-1 RT K103N/Y181C) is reported as over 0.1 µM.

CCN1c2ncc(CCOc3ccc4[nH]c(=O)[nH]c4c3)cc2C(=O)N(C)c2cccnc21 [Entry 122, 5,11-Dihydro-8-{2-{(2,3-dihydro-2-oxo-1H-benzimidazol-5-yl)oxy}ethyl}-11-ethyl-5-methyl-6H-dipyrido[3,2-b:2′,3′-e][1,4]diazepin-6-one] showed an IC50 (HIV-1 RT WT) of 0.05 to 0.1 µM and an IC50 (HIV-1 RT K103N/Y181C) of over 0.1 µM.

CCN1c2ncc(CCOc3cccc4c3n(C)c(=O)n4C)cc2C(=O)N(C)c2cccnc21 [Entry 131] showed an IC50 (HIV-1 RT WT) of 0.05 to 0.1 µM and an IC50 (HIV-1 RT K103N/Y181C) of over 0.1 µM.

CCN1c2ncc(CCOc3cccc4c3CN(O)C4=O)cc2C(=O)N(C)c2cccnc21 [Entry 103, 5,11-Dihydro-8-{2-{(2,3-dihydro-2-hydroxy-1-oxo-1H-isoindol-4-yl)oxy}ethyl}-11-ethyl-5-methyl-6H-dipyrido[3,2-b:2′,3′-e][1,4]diazepin-6-one] gave an EC50 (HIV-1 WT) of under 0.01 µM, an IC50 (HIV-1 RT WT) of 0.05 to 0.1 µM and an IC50 (HIV-1 RT K103N/Y181C) of over 0.1 µM. For the same compound, the EC50 [1] was 0.01 to 0.05 µM.

With CCN1c2ncc(CCOc3cccc4c3CNC(=O)C4)cc2C(=O)N(C)c2cccnc21 [Entry 123, 5,11-Dihydro-11-ethyl-5-methyl-8-{2-{(1,2,3,4-tetrahydro-3-oxo-8-isoquinolinyl)oxy}ethyl}-6H-dipyrido[3,2-b:2′,3′-e][1,4]diazepin-6-one] the IC50 (HIV-1 RT WT) was under 0.05 µM and the IC50 (HIV-1 RT K103N/Y181C) was under 0.05 µM.

Work on CCN1c2ncc(CCOc3cccc4c3CC(=O)N4C)cc2C(=O)N(C)c2cccnc21 [Entry 107, 5,11-dihydro-8-{2-{(2,3-dihydro-1-methyl-2-oxo-1H-indol-4-yl)oxy}ethyl}-11-ethyl-5-methyl-6H-dipyrido[3,2-b:2′,3′-e][1,4]diazepin-6-one] yielded an IC50 (HIV-1 RT WT) of 0.05 to 0.1 µM.

In the case of CCN1c2ncc(CCOc3cccc4c3C(C)(C)OC(=O)N4)cc2C(=O)N(C)c2cccnc21 [Entry 125, 5,11-Dihydro-8-{2-{(1,4-dihydro-4,4-dimethyl-2-oxo-2H-3,1-benzoxazin-5-yl)oxy}ethyl}-11-ethyl-5-methyl-6H-dipyrido[3,2-b:2′,3′-e][1,4]diazepin-6-one], the IC50 (HIV-1 RT WT) is reported as 0.05 to 0.1 µM and the IC50 (HIV-1 RT K103N/Y181C) is reported as over 0.1 µM.

Compound CCN1c2ncc(CCOc3cccc4c3CNC(=O)N4)cc2C(=O)N(C)c2cccnc21 [Entry 110, 5,11-Dihydro-11-ethyl-5-methyl-8-{2-{(1,2,3,4-tetrahydro-2-oxo-5-quinazolinyl)oxy}ethyl}-6H-dipyrido[3,2-b:2′,3′-e][1,4]diazepin-6-one] has an EC50 (HIV-1 WT) of under 0.01 µM, an IC50 (HIV-1 RT WT) of under 0.05 µM and an IC50 (HIV-1 RT K103N/Y181C) of over 0.1 µM. It also gave an EC50 [1] of under 0.01 µM.

CCN1c2ncc(CCOc3cccc4c3C(C)C(=O)N4C)cc2C(=O)N(C)c2cccnc21 (stereo not drawn) [Entry 106, 5,11-dihydro-8-{2-{(2,3-dihydro-1,3-dimethyl-2-oxo-1H-indol-4-yl)oxy}ethyl}-11-ethyl-5-methyl-6H-dipyrido[3,2-b:2′,3′-e][1,4]diazepin-6-one] was tested, and the IC50 (HIV-1 RT WT) was 0.05 to 0.1 µM and the IC50 (HIV-1 RT K103N/Y181C) was over 0.1 µM.

In the case of CCN1c2ncc(CCOc3cccc4c3CC(=O)N4)cc2C(=O)N(C)c2cccnc21 [Entry 105, 5,11-Dihydro-8-{2-{(2,3-dihydro-2-oxo-1H-indol-4-yl)oxy}ethyl}-11-ethyl-5-methyl-6H-dipyrido[3,2-b:2′,3′-e][1,4]diazepin-6-one], the IC50 (HIV-1 RT WT) is reported as 0.05 to 0.1 µM and the IC50 (HIV-1 RT K103N/Y181C) is reported as over 0.1 µM.

CCN1c2ncc(CCOc3cccc4c3CNC(=O)N4)cc2C(=O)Nc2c(C)ccnc21 [Entry 111] gave an EC50 (HIV-1 WT) of under 0.01 µM, an IC50 (HIV-1 RT WT) of under 0.05 µM and an IC50 (HIV-1 RT K103N/Y181C) of over 0.1 µM. The EC50 [1] was 0.01 to 0.05 µM.

Compound CCN1c2ncc(CCOc3cccc4c3CNC(=O)N4C)cc2C(=O)Nc2c(C)ccnc21 [Entry 116] has an IC50 (HIV-1 RT WT) of under 0.05 µM and an IC50 (HIV-1 RT K103N/Y181C) of over 0.1 µM.

In the case of CCN1c2ncc(CCOc3cccc4c3CNC4=O)cc2C(=O)N(C)c2cccnc21 [Entry 101, 5,11-Dihydro-8-{2-{(2,3-dihydro-1-oxo-1H-isoindol-4-yl)oxy}ethyl}-11-ethyl-5-methyl-6H-dipyrido[3,2-b:2′,3′-e][1,4]diazepin-6-one], the EC50 (HIV-1 WT) is reported as under 0.01 µM, the IC50 (HIV-1 RT WT) is reported as under 0.05 µM and the IC50 (HIV-1 RT K103N/Y181C) is reported as over 0.1 µM. For the same compound, the EC50 [1] was under 0.01 µM.

Work on CCN1c2ncc(CCOc3ccc4c(c3)CNC(=O)N4C)cc2C(=O)N(C)c2cccnc21 [Entry 119] yielded an IC50 (HIV-1 RT WT) of under 0.05 µM and an IC50 (HIV-1 RT K103N/Y181C) of over 0.1 µM.

CCN1c2ncc(CCOc3cccc4c3COC(=O)N4)cc2C(=O)Nc2c(C)ccnc21 [Entry 127] showed an IC50 (HIV-1 RT WT) of under 0.05 µM and an IC50 (HIV-1 RT K103N/Y181C) of over 0.1 µM.

CCN1c2ncc(CCOc3ccc4on(C(C)(C)C)c(=O)c4c3)cc2C(=O)Nc2c(C)cc(F)nc21 [Entry 129, 5,11-Dihydro-8-{2-{{2,3-dihydro-2-(1,1-dimethylethyl)-3-oxo-1,2-benzisoxazol-5-yl}oxy}ethyl}-2-fluoro-11-ethyl-4-methyl-6H-dipyrido[3,2-b:2′,3′-e][1,4]diazepin-6-one] was tested, and the IC50 (HIV-1 RT WT) was 0.05 to 0.1 µM and the IC50 (HIV-1 RT K103N/Y181C) was over 0.1 µM.

In the case of CCN1c2ncc(CCOc3cccc4c3CN(Cc3ccncc3)C4=O)cc2C(=O)N(C)c2cccnc21 [Entry 104, 5,11-dihydro-8-{2-{{2,3-dihydro-1-oxo-2-(4-pyridinylmethyl)-1H-isoindol-4-yl}oxy}ethyl}-11-ethyl-5-methyl-6H-dipyrido[3,2-b:2′,3′-e][1,4]diazepin-6-one], the IC50 (HIV-1 RT WT) is reported as under 0.05 µM and the IC50 (HIV-1 RT K103N/Y181C) is reported as 0.05 to 0.1 µM.

Work on Cc1ccnc2c1NC(=O)c1cc(CCOc3cccc4c3CNC(=O)N4)cnc1N2C1CC1 [Entry 114] yielded an IC50 (HIV-1 RT WT) of under 0.05 µM and an IC50 (HIV-1 RT K103N/Y181C) of over 0.1 µM.

For CCN1c2ncc(CCOc3cccc4c3CNC(=O)N4C)cc2C(=O)N(C)c2cccnc21 [Entry 113], the EC50 (HIV-1 WT) was under 0.01 µM, the IC50 (HIV-1 RT WT) was under 0.05 µM and the IC50 (HIV-1 RT K103N/Y181C) was under 0.05 µM. It also gave an EC50 [1] of under 0.01 µM.

CCN1c2ncc(CCOc3cccc4c3CN(C)C(=O)N4C)cc2C(=O)Nc2c(C)ccnc21 [Entry 115] was tested, and the IC50 (HIV-1 RT WT) was under 0.05 µM and the IC50 (HIV-1 RT K103N/Y181C) was over 0.1 µM.

CCN1c2ncc(CCOc3cccc4c3COC(=O)N4)cc2C(=O)N(C)c2cccnc21 [Entry 126, 5,11-Dihydro-8-{2-{(1,4-dihydro-2-oxo-2H-3,1-benzoxazin-5-yl)oxy}ethyl}-11-ethyl-5-methyl-6H-dipyrido[3,2-b:2′,3′-e][1,4]diazepin-6-one] showed an IC50 (HIV-1 RT WT) of under 0.05 µM and an IC50 (HIV-1 RT K103N/Y181C) of over 0.1 µM.

CCN1c2ncc(CCOc3cccc4c3COC(=O)N4CC(=O)O)cc2C(=O)N(C)c2cccnc21 [Entry 128, 5-[2-(6,11-dihydro-11-ethyl-5-methyl-6-oxo-5H-dipyrido[3,2-b:2′,3′-e][1,4]diazepin-8-yl)ethoxy]-2-oxo-2H-3,1-benzoxazine-1(4H)-acetic acid] showed an IC50 (HIV-1 RT WT) of 0.05 to 0.1 µM and an IC50 (HIV-1 RT K103N/Y181C) of over 0.1 µM.

Compound CCN1c2ncc(CCOc3ccc4c(c3)CNC(=O)N4)cc2C(=O)N(C)c2cccnc21 [Entry 121] has an IC50 (HIV-1 RT WT) of 0.05 to 0.1 µM and an IC50 (HIV-1 RT K103N/Y181C) of over 0.1 µM.
